Data on two compounds can be found in paper PMC6802645, “6′-Sialylgalactose inhibits vascular endothelial growth factor receptor 2-mediated angiogenesis” (Experimental & Molecular Medicine, 2019).

This assay deals with T1, VEGFR-2 (vascular endothelial growth factor receptor 2) (Homo sapiens, UniProt P35968).
T1 construct: gene KDR; second and third IgG-like domains of VEGFR-2 (VEGFR-2 IG3)
As to the kind of experiment: SPR (Biacore T100, VEGFR-2 IG3 immobilized by amine coupling on CM5). In kind it is binding. In general terms: Surface plasmon resonance follows binding to a sensor surface in real time, without labels.

T1 sequence (P35968 141-320 limits assumed): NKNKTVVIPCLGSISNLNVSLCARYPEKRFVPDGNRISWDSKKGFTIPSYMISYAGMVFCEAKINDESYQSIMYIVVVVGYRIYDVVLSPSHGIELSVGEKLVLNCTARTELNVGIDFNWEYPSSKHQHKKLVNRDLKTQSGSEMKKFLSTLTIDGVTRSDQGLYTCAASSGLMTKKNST

`CC(=O)N[C@H]1[C@H]([C@H](O)[C@H](O)CO)OC(OC[C@H]2OC(O)[C@H](O)[C@@H](O)[C@H]2O)(C(=O)O)C[C@@H]1O` (some centres unmarked) [6SG, 6′-sialylgalactose] had a Kd of 2.35 nM.

`CC(=O)N[C@H]1[C@H]([C@H](O)[C@H](O)CO)OC(OC[C@H]2O[C@@H](O[C@H]3[C@H](O)[C@@H](O)C(O)O[C@@H]3CO)[C@H](O)[C@@H](O)[C@H]2O)(C(=O)O)C[C@@H]1O` (some centres unmarked) [6SL, 6′-sialyllactose]: binding was characterised by a dissociation constant (Kd) of 3.05 nM.

As a reminder, the Kd is the concentration at which binding is half-saturated. A lower Kd goes with tighter binding.
